# Laboratory results published in patent publication US20190209501A1, “COMPOSITIONS AND METHODS OF USE OF BETA-HYDROXY-BETA-METHYLBUTYRATE (HMB) […] IN[…]” (Texas Tech University Office of Research Commercialization, priority 2018, published 2019).
# Tests used:
# [1] = approximate; cited from earlier work
# [2] = Isokinetic squat peak force on mechanized squat device; type: in vivo, human; details: for PFCON ES (d) / PFECC ES (d): Cohen's d baseline vs week 8; for PFCON Δ (%) / PFECC Δ (%): change baseline to week 8 relative to baseline; for PFCON (N) Week 4 / PFCON (N) Week 8: concentric peak force; for PFCON (N) Week 4 / PFCON (N) Week 8 / PFECC (N) Week 4 / PFECC (N) Week 8: mean ± SE; for PFECC (N) Week 4 / PFECC (N) Week 8: eccentric peak force; for PFCON (N) Δ / PFECC (N) Δ: week 8 minus baseline
# From the text: Assessments of muscular performance took place between 12:00 and 18:00 in the non-fasted state, and participants were instructed to follow their preferred food and fluid intake patterns prior to testing. The assessment began with a 5-minute warm up period using a self-selected pace on a stationary bicycle. This warm up period was followed by assessment of countermovement vertical jumps (CMVJ) performance, testing on a mechanized squat device, and muscular strength and endurance assessment on the bench press and hip sled exercises. At the 4-week assessment, the CMVJ and hip sled assessments were not performed.
# Isometric and isokinetic squats were performed using a mechanized squat device (Exerbotics eSq, Tulsa, Okla., USA) (31, 32). At the first assessment, each participant's preferred foot positioning was determined using a custom grid overlaid on the foot platform of the squat device. This foot positioning was recorded and utilized for all visits. No weight belts, knee wraps, or other aids were utilized during testing. Prior to testing, the participant's range of motion for isokinetic testing was determined. The range of motion was set to 90° between the thigh and lower leg at the bottom of the repetition and approximately 170° at the top of the repetition, as determined by a goniometer. The isometric testing included maximal effort pushes at 120° and 150° knee angles. Each participant was instructed to push against the device as hard and fast as possible while attempting to complete a squat movement. Two isometric pushes were performed at each knee angle, and each effort lasted approximately 2 to 3 seconds. After the isometric testing, a 3-repetition maximum isokinetic force production test was completed. Prior to testing, participants observed the movement of the machine and received verbal instruction regarding proper performance of the assessment. Each of the repetitions during the maximal isokinetic force production test consisted of a 4-second eccentric phase, followed by an approximately half-second pause at the 90° knee position and a 4-second concentric phase. During testing, the force signal was sampled from the load cell at 1 kHz (MP100; Biopac Systems, Inc, Santa Barbara, Calif., USA), stored on a personal computer, and processed off-line using custom-written software (LabVIEW, Version 11.0; National Instruments, Austin, Tex., USA). The scaled force signal was low-pass filtered, with a 10-Hz cutoff (zero-phase lag, fourth-order Butterworth filter). All subsequent analyses were conducted on the scaled and filtered force signal. For the isometric force production tests, the rate of force development (RFD) over specific time intervals (i.e. 30, 50, 100 and 200 ms) was calculated by manually specifying the onset of force production within the custom LabVIEW program. For each repetition of the maximum isokinetic force production test, isokinetic peak forces (PF) were determined as the highest mean 25-ms epoch for both concentric and eccentric testing (i.e. PFCONC and PFECC).
# [3] = Salivary cortisol awakening response; type: in vivo, human; set-up: Cortisol Awakening Response (AUC) / Cortisol Awakening Response (AUC) Δ: unit not given here; details: for Average Cortisol / Cortisol Awakening Response (AUC): mean ± SE; for Average Cortisol Δ / Average Cortisol Δ (%) / Cortisol Awakening Response (AUC) Δ / Cortisol Awakening Response (AUC) Δ (%): change baseline to W 8; for Average Cortisol ES (d) / Cortisol Awakening Response (AUC) ES (d): effect size
# From the text: At baseline and after 4 and 8 weeks of the intervention, participants completed two testing sessions: (1) a morning assessment conducted after an overnight fast for assessment of body composition, metabolism, vascular measures and subjective factors: and (2) an afternoon assessment of muscular performance, conducted in the non-fasted state. For morning assessments, participants reported to the laboratory after abstention from eating, drinking, exercising and utilizing caffeine or nicotine for ≥8 hours. Participants were interviewed to confirm adherence to these pre-assessment restrictions. The actual abstention from exercise was ≥14 hours due to the scheduling of exercise sessions. Participants reported to the laboratory wearing athletic clothing, and all metal and accessories were removed from the body prior to testing. Each participant voided her bladder and provided a urine sample. Urine samples were assessed for urine specific gravity (USG) using a digital refractometer (PA201X-093. Misco, Solon, Ohio. USA). Additionally, a standard urinary HCG test was performed to confirm that each participant was not pregnant. Finally, urinary samples were frozen at −80° C. for assessment of urinary HMB content after study unblinding. After voiding, each participant's body mass (BM) and height were determined via digital scale with stadiometer (Seca 769, Hamburg, Germany). Blood draws were performed at Texas Tech University Student Health Services after an overnight fast, and participants completed at-home saliva collections for assessment of the cortisol awakening response (CAR).
# Each participant was familiarized with the saliva collection procedures at the baseline visit. Saliva collection took place using the passive drool method, with allows for saliva to be transferred from the mouth to a small vial according to manufacturer recommendations (36). Three saliva samples during the baseline period for assessment of the cortisol awakening response (CAR; the characteristic increase in cortisol concentrations upon waking (37)). These samples were collected at the participant's home 0, 30 and 45 minutes after waking. The importance of collecting the saliva sample exactly as instructed was strongly emphasized to research participants. Participants were provided with reminder signs to place by the bedside and were instructed to set alarms for saliva collection timepoints. Upon obtaining the sample, each participant was instructed to place the vial in the freezer until it could be transported to the laboratory. Upon delivery to the lab, each vial of saliva was stored at −80° C. until shipment to a saliva testing facility for analysis (Salimetrics LLC, Carlsbad, Calif., USA). For the analysis, samples were thawed to room temperature, vortexed, and then centrifuged for 15 minutes at approximately 3,000 RPM (1,500×g) immediately before performing the assay. Samples were tested for salivary cortisol using a high sensitivity enzyme immunoassay (Cat. No. 1-3002). Sample test volume was 25 μl of saliva per determination. The assay has a lower limit of sensitivity of 0.007 μg/dL, a standard curve range from 0.012-3.0 μg/dL, and an average intra-assay coefficient of variation of 4.60%, and an average inter-assay coefficient of variation 6.00%, which meets the manufacturers' criteria for accuracy and repeatability in Salivary Bioscience. and exceeds the applicable NIH guidelines for Enhancing Reproducibility through Rigor and Transparency.
structure (smiles),measurement,setting,value
"CC(C)(O)CC(=O)O [TRFHMB, β-hydroxy-β-methylbutyrate]",Loss of HMB to urine after HMB is fed,[1],20-50%
same,"Average effect size for tests of lower body force generation (1RMLP, PFCON, PFECC, RFD)","[2]; Cohen's d, vs 0.3-0.4 in TRF or CD",0.6-0.7
same,PFCON ES (d),[2]; ITT analysis,0.83
same,PFECC ES (d),[2]; ITT analysis,0.60
same,PFCON Δ (%),[2]; ITT analysis,29%
same,PFECC Δ (%),[2]; ITT analysis,19%
same,PFCON (N) Week 4,[2]; ITT analysis,1195 ± 92 N
same,PFCON (N) Week 8,[2]; ITT analysis,1324 ± 112 N
same,PFECC (N) Week 4,[2]; ITT analysis,1301 ± 93 N
same,PFECC (N) Week 8,[2]; ITT analysis,1407 ± 95 N
same,PFCON (N) Δ,[2]; ITT analysis,295 N
same,PFECC (N) Δ,[2]; ITT analysis,223 N
same,PFCON ES (d),[2]; PP analysis,0.95
same,PFECC ES (d),[2]; PP analysis,0.48
same,PFCON Δ (%),[2]; PP analysis,31%
same,PFECC Δ (%),[2]; PP analysis,14%
same,PFCON (N) Week 4,[2]; PP analysis,1247 ± 133 N
same,PFCON (N) Week 8,[2]; PP analysis,1418 ± 154 N
same,PFECC (N) Week 4,[2]; PP analysis,1311 ± 136 N
same,PFECC (N) Week 8,[2]; PP analysis,1475 ± 133 N
same,PFCON (N) Δ,[2]; PP analysis,336 N
same,PFECC (N) Δ,[2]; PP analysis,184 N
same,Average Cortisol,"[3]; ITT, Baseline",0.40 ± 0.07 µg/dL
same,Cortisol Awakening Response (AUC),"[3]; ITT, Baseline",17.5 ± 3.2
same,Average Cortisol,"[3]; ITT, W 8",0.39 ± 0.98 µg/dL
same,Cortisol Awakening Response (AUC),"[3]; ITT, W 8",16.9 ± 4.0
same,Average Cortisol Δ,[3]; ITT,-0.01 µg/dL
same,Average Cortisol Δ (%),[3]; ITT,−3%
same,Cortisol Awakening Response (AUC) Δ,[3]; ITT,−0.6
same,Cortisol Awakening Response (AUC) Δ (%),[3]; ITT,−3%
same,Average Cortisol ES (d),[3]; ITT,−0.04
same,Cortisol Awakening Response (AUC) ES (d),[3]; ITT,−0.05
same,Average Cortisol,"[3]; PP, Baseline",0.34 ± 0.07 µg/dL
same,Cortisol Awakening Response (AUC),"[3]; PP, Baseline",14.0 ± 3.3
same,Average Cortisol,"[3]; PP, W 8",0.42 ± 0.1 µg/dL
same,Cortisol Awakening Response (AUC),"[3]; PP, W 8",18.2 ± 4.7
same,Average Cortisol Δ,[3]; PP,0.1 µg/dL
same,Average Cortisol Δ (%),[3]; PP,24%
same,Cortisol Awakening Response (AUC) Δ,[3]; PP,4.2
same,Cortisol Awakening Response (AUC) Δ (%),[3]; PP,30%
same,Average Cortisol ES (d),[3]; PP,0.93
same,Cortisol Awakening Response (AUC) ES (d),[3]; PP,0.64
